Measured values published in patent US20030228277A1, “Use of ROM production and release inhibitors to treat and prevent intraocular damage” (priority 2002, published 2003).

Columns and labels:
NADPH oxidase = molecular target: T1, NADPH oxidase (Homo sapiens, UniProt P04839); details: membrane bound enzyme converting oxygen to superoxide; cited from earlier work
T1 construct: host or cells: phagocytes (not specified further)

[1] = tested on: diabetic patient manifesting proliferative diabetic retinopathy; details: ophthalmic gel containing 0.5% histamine dihydrochloride; compared with patients who received no histamine
Description: The purpose of this treatment is to reduce the extent of proliferative diabetic retinopathy, to prevent further manifestations of the disease after removal of any extraretinal neovascularized tissue, and to reduce the likelihood of retinal detachment.
A patient presenting proliferative diabetic retinopathy receives the histamine treatment described herein in combination with surgical treatment of the neovascularized tissue.
Once diagnosed as entering the proliferative stage, the patient receives a full ophthalmic examination to establish a baseline of ocular health. […]
After treatment, the patients' eyes are examined on days one (1), two (2), seven (7), fifteen (15), thirty (30) and sixty (60). On each examination day, the patient is monitored. Additionally, the patient is monitored for posterior vitreous detachments using indirect ophthalmoscopy with scleral depression. Finally, the extent of PDR presented by the patient is continuously monitored through periodic retinal examinations and fluorescein angiograms to monitor the extent of venous beading, IRMA, retinal ischemia, neovascularization, and vitreal hemorrhage. […]

[2] = tested on: patient suffering from PDR; details: approximately 100 μl of a 2% histamine-containing solution injected intraocularly, repeated every two weeks
Description: As a preliminary step a patient is identified as suffering from PDR. […] The patient is monitored thereafter. The treatment is repeated every two weeks.

macular hole formation = details: 200 μl intravitreal ophthalmic solution containing 5% histamine dihydrochloride; compared with untreated eyes
Description: The described methods contemplate the use of histamine to reduce ROM levels and so as to eliminate the conditions which result in macular hole formation. Following the preliminary examination, an intravitreal injection of histamine dihydrochloride is given to patient's affected eye. If both eyes are affected, they may be treated separately. The eye is injected with the histamine ophthalmic solution intravitreally to promote a reduction of ROM levels. The eye to be treated is injected intravitreally with 200 μl of a histamine ophthalmic solution containing 5% histamine dihydrochloride to prevent or reduce ROM mediate intraocular damage.

[3] = tested on: diabetic patient manifesting preproliferative diabetic retinopathy; details: intravitreal ophthalmic solution containing 1% histamine diphosphate; compared to an untreated individual
Description: A diabetic patient manifesting preproliferative diabetic retinopathy is treated for this complication of diabetes mellitus through the intravitreal injection of a histamine compound.
This increased surveillance should include periodic retinal examinations and fluorescein angiograms to monitor the extent of venous beading, IRMA, and retinal ischemia.
When preproliferative diabetic retinopathy begins reaching the proliferative stage, treatment with an ROM inhibitor or scavenger is commenced. This stage is defined as the presence of venous beading in 2 or more quadrants, IRMA in one or more quadrants, and/or microaneurysm and dot hemorrhages in all quadrants. Once these indicia are present, the administration of a ROM inhibitor or scavenger is initiated.
The patient receives a full ophthalmic examination to establish a baseline of ocular health. […]
After treatment, the patient's eyes are examined on days one (1), two (2), seven (7), fifteen (15), thirty (30) and sixty (60). On each examination day, the patient is monitored. Additionally, the patient is monitored for posterior vitreous detachments using indirect ophthalmoscopy with scleral depression. Finally, the extent of PDR presented by the patient is continuously monitored through periodic retinal examinations and fluorescein angiograms to monitor the extent of venous beading, IRMA, and retinal ischemia.

[4] = tested on: patient manifesting age-related macular degeneration; experiment: Treatment of age-related macular degeneration, intravitreal ROM scavenger; format: in vivo, human; details: intravitreal ophthalmic solution containing 0.75% superoxide dismutase; compared to untreated eyes
Description: A patient manifesting age-related macular degeneration is treated with an intravitreal injection of a scavenger of ROM, namely superoxide dismutase.
Once a patient reaches the age of 60, increased ophthalmic surveillance is performed to detect the presence of ADM.
When ADM is diagnosed, a regime of histamine treatment is commenced coupled with or without other treatments such as photocoagulation.
Following the preliminary examination, an intravitreal injection of superoxide dismutase is given to the patient's affected eye manifesting ADM. […] The eye to be treated is injected intravitreally with an ophthalmic solution containing 0.75% superoxide dismutase to prevent or reduce ROM mediate intraocular damage.
Because of the possibility of reoccurrence, the patient should return for periodic examinations on a monthly basis thereafter. […] Additional superoxide dismutase and/or laser treatments may be required if indicia of reoccurring neovascularization are observed.

For `NC(=O)C1=CN([C@@H]2O[C@H](COP(=O)(O)OP(=O)(O)OC[C@H]3O[C@@H](n4cnc5c(N)ncnc54)[C@H](O)[C@@H]3O)[C@@H](O)[C@H]2O)C=CC1` [NADH], which Km (NADPH oxidase) is on record?
Its Km is 450 µM.

Which Km (NADPH oxidase) does the source give for `NC(=O)C1=CN([C@@H]2O[C@H](COP(=O)(O)OP(=O)(O)OC[C@H]3O[C@@H](n4cnc5c(N)ncnc54)[C@H](OP(=O)(O)O)[C@@H]3O)[C@@H](O)[C@H]2O)C=CC1` [NADPH] here?
The Km was 45 µM.

Which “development of posterior vitreous detachments” value [1] does the source give for `Cl.Cl.NCCc1c[nH]cn1` [histamine dihydrochloride] here?
Its value is “reduction in the development of posterior vitreous detachments”.

Which results are given for `NCCc1c[nH]cn1` [histamine]?
symptoms associated with PDR [2]: reduction in symptoms associated with PDR; incidence of macular hole formation (macular hole formation): reduction in the incidence of macular hole formation

With histamine diphosphate as the compound, how does the “development of proliferative diabetic retinopathy” value [3] read?
Its value is “reduction in the development of proliferative diabetic retinopathy”.

With superoxide dismutase as the compound, how does the ocular health [4] read?
Its ocular health is “improvement in ocular health”.
